Data taken from US20250230226A1, “PLXDC1/PLXDC2 ACTIVATORS AND THEIR USE IN THE TREATMENT OF BLOOD VESSEL DISORDERS” (THE REGENTS OF THE UNIVERSITY OF CALIFORNIA, priority 2019, published 2025).

Test system: LL/2 lung cancer tumor endothelial cells
Assay: Lung LL2 ex vivo model of tumor angiogenesis
Assay type: cell-based, mouse
Details: for 48 hrs (morphology observations) / Cell death: 20 μm; for 48 hrs (morphology observations): LL/2 tumor endothelial cells; for Cell death: drug treatment for two days, ratio of red area to total endothelial cell area; for cytotoxicity at 20 µM: Mus musculus, Endothelial cell, 48 h, read-out: Cell death
Method in brief: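 Live/dead imaging with FDA and PI, taken e.g. 48 h post-drug under fixed channel settings, measures treatment effects on endothelial cells sprouting from Lewis lung tumor explants. Explants were seeded in Matrigel drops and grown ~4 days in endothelial growth medium, 37 °C, 5% CO2, before dosing.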

| SMILES | 48 hrs (morphology observations) | Cell death [%] | cytotoxicity at 20 µM [%] |
| --- | --- | --- | --- |
| CCCCCCCCCCCCOc1ccc(S(=O)(=O)c2cnc3ccc([S+](C)[O-])cc3c2N2CCC(N3CCN(CCO)CC3)CC2)cc1F (stereo not shown) [Compound 362] | *** (more than 50% but less than 100% of endothelial cells vesicularize in cell shape) | 20 |  |
| CCCCCCCCCCCCOc1ccc(S(=O)(=O)c2cnc3ccc([S+](C)[O-])cc3c2N2CCC(N3CCC(N4CCCCC4)CC3)CC2)cc1F (stereo not shown) [Compound 363] | *** (more than 50% but less than 100% of endothelial cells vesicularize in cell shape) | 30 |  |
| CCCCCCCCCCCCCCOc1ccc(S(=O)(=O)c2cnc3ccc([S+](C)[O-])cc3c2N2CCC(N3CCC(N4CCCC(O)C4)CC3)CC2)cc1F (stereo not shown) [Compound 364] | *** (more than 50% but less than 100% of endothelial cells vesicularize in cell shape) |  | 30 |
| CCCCCCCCCCCCCCOc1ccc(S(=O)(=O)c2cnc3ccc([S+](C)[O-])cc3c2N2CCC(N3CCN(CCO)CC3)CC2)cc1F (stereo not shown) [Compound 365] | *** (more than 50% but less than 100% of endothelial cells vesicularize in cell shape) | 20 |  |
| CCCCCCCCCCCCCCOc1ccc(S(=O)(=O)c2cnc3ccc([S+](C)[O-])cc3c2N2CCC(N3CCC(N4CCCCC4)CC3)CC2)cc1F (stereo not shown) [Compound 366] | 0 | 10 |  |
| CCCCCCCCCCCCOc1ccc(S(=O)(=O)c2cnc3ccc([S+](C)[O-])cc3c2N2CCC(N3CCC(N4CCCC(O)C4)CC3)CC2)cc1F (stereo not shown) [Compound 367] | 0 |  | 5 |
| CCCCCCCCCCCCCCOc1ccc(S(=O)(=O)c2cnc3ccc([S+](C)[O-])cc3c2N2CCC(N3CCC(N4CCN(CCO)CC4)CC3)CC2)cc1F (stereo not shown) [Compound 368] |  | 20 |  |
| CCCCCCCCCCCCOc1ccc(S(=O)(=O)c2cnc3ccc([S+](C)[O-])cc3c2N2CCC(N3CCC(N4CCN(C)CC4)CC3)CC2)cc1F (stereo not shown) [Compound 370] |  | 20 |  |
| CCCCCCCCCCCCCCOc1ccc(S(=O)(=O)c2cnc3ccc([S+](C)[O-])cc3c2N2CCC(N3CCC(N4CCN(C)CC4)CC3)CC2)cc1F (stereo not shown) [Compound 371] | *** (more than 50% but less than 100% of endothelial cells vesicularize in cell shape) | 30 |  |
| CCCCCCCCCCCCOc1ccc(S(=O)(=O)c2cnc3ccc([S+](C)[O-])cc3c2N2CCC(N3CCC(N4CCC(O)CC4)CC3)CC2)cc1F (stereo not shown) [Compound 372] |  | 20 |  |
| CCCCCCCCCCCCCCOc1ccc(S(=O)(=O)c2cnc3ccc([S+](C)[O-])cc3c2N2CCC(N3CCC(N4CCC(O)CC4)CC3)CC2)cc1F (stereo not shown) [Compound 373] | * (50% or less of cells vesicularize in cell shape) | 20 |  |
| CCCCCCCCCCCCOc1ccc(S(=O)(=O)c2cnc3ccc([S+](C)[O-])cc3c2N2CCC(N3CCC(N4CCC(O)CC4)CC3)CC2)cc1 (stereo not shown) [Compound 374] |  | 20 |  |
| CCCCCCCCCCCCCCOc1ccc(S(=O)(=O)c2cnc3ccc([S+](C)[O-])cc3c2N2CCC(N3CCC(N4CCC(O)CC4)CC3)CC2)cc1 (stereo not shown) [Compound 375] | * (50% or less of cells vesicularize in cell shape) | 50 |  |
| CCCCCCCCCCCCCCCCOc1ccc(S(=O)(=O)c2cnc3ccc([S+](C)[O-])cc3c2N2CCC(N3CCN(CCO)CC3)CC2)cc1 (stereo not shown) [Compound 376] | 0 | 10 |  |
| CCCCCCCCCCCCCCCCOc1ccc(S(=O)(=O)c2cnc3ccc([S+](C)[O-])cc3c2N2CCC(N3CCC(N4CCCCC4)CC3)CC2)cc1 (stereo not shown) [Compound 377] | 0 | 10 |  |
| CCCCCCCCCCCCCCCCOc1ccc(S(=O)(=O)c2cnc3ccc([S+](C)[O-])cc3c2N2CCC(N3CCC(N4CCCC(O)C4)CC3)CC2)cc1 (stereo not shown) [Compound 378] | *** (more than 50% but less than 100% of endothelial cells vesicularize in cell shape) | 30 |  |
